Data taken from patent publication US20250282794A1 (CURADEV PHARMA LTD, priority 2022, published 2025).

target: recombinant full length HPK-1 enzyme (Homo sapiens (Human), UniProt Q92918); experiment: HPK-1 biochemical enzyme assay (ADP-Glo kinase inhibition); settings: recombinant full length HPK-1 6.8 nM, 10 μM ATP, 12.5 μM MBP, 30 mins at 25° C.
Outline: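 ADP-Glo readout of ADP formed after a 30 min, 25° C. reaction of 6.8 nM full-length HPK-1 with swine myelin basic protein (12.5 μM) and ATP (10 μM) in Tris pH 7.4 buffer with MgCl2, DTT and BSA. Ten compound concentrations tested; percent inhibition set against vehicle (0%) and no-enzyme (100%) controls gave IC50.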

recombinant full length HPK-1 enzyme, sequence (Q92918 whole entry, species assumed): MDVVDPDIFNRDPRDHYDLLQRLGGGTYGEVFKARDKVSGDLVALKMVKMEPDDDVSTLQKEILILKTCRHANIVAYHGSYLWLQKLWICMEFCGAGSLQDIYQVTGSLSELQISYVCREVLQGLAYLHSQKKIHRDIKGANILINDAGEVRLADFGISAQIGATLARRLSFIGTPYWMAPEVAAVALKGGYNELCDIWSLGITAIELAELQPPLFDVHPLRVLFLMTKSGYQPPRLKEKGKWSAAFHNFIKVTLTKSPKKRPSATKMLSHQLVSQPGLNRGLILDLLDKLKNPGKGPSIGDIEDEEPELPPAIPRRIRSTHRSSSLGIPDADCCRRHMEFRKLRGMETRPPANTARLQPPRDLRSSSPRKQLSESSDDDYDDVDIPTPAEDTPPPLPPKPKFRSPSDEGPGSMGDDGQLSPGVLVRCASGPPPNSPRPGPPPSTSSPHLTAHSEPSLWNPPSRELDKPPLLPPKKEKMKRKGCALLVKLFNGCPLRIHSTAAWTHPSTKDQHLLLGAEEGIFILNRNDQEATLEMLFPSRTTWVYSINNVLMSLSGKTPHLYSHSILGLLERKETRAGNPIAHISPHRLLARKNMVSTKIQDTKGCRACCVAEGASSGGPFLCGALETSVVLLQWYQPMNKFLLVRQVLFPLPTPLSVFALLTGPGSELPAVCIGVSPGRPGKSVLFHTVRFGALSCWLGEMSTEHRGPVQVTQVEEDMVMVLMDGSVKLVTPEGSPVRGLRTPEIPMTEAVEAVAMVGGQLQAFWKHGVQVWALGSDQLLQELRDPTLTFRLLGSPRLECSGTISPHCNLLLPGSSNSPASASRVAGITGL

| SMILES | IC50 [nM] |
| --- | --- |
| CCOCCN1CCN(c2ccc(NC(=O)c3c(Nc4cnc5c(c4C)NCCO5)cc[nH]c3=O)cc2)CC1 [Example 368, N-(4-(4-(2-ethoxyethyl)piperazin-1-yl)phenyl)-4-((8-methyl-2,3-dihydro-1H-pyrido[2,3-b][1,4]oxazin-7-yl)amino)-2-oxo-1,2-dihydropyridine-3-carboxamide] | 10 to 100 |
| Cc1c(Nc2cc[nH]c(=O)c2C(=O)Nc2ccc(CN3CCS(=O)(=O)CC3)cc2)cnc2c1NCCO2 [Example 232, N-(4-((1,1-dioxidothiomorpholino)methyl)phenyl)-4-((8-methyl-2,3-dihydro-1H-pyrido[2,3-b][1,4]oxazin-7-yl)amino)-2-oxo-1,2-dihydropyridine-3-carboxamide] | 10 to 100 |
| Cc1c(Nc2cc[nH]c(=O)c2C(=O)Nc2ccc(N3CCN(C(=O)C4CCN(C)C4)CC3)cc2)cnc2c1NCCO2 (stereo not drawn) [Example 356, 4-((8-methyl-2,3-dihydro-1H-pyrido[2,3-b][1,4]oxazin-7-yl)amino)-N-(4-(4-(1-methylpyrrolidine-3-carbonyl)piperazin-1-yl)phenyl)-2-oxo-1,2-dihydropyridine-3-carboxamide] | 10 to 100 |
| Cc1c(Nc2cc[nH]c(=O)c2C(=O)Nc2ccc(N3CCN(C)CC3)c(F)c2)cnc2c1NCC(C)O2 (stereo not drawn) [Example 360, 4-((3,8-dimethyl-2,3-dihydro-1H-pyrido[2,3-b][1,4]oxazin-7-yl)amino)-N-(3-fluoro-4-(4-methylpiperazin-1-yl)phenyl)-2-oxo-1,2-dihydropyridine-3-carboxamide] | 10 to 100 |
| Cc1c(Nc2cc[nH]c(=O)c2C(=O)Nc2ccc(N3CCC4(CC3)CC4)cc2)cnc2c1NCCO2 [Example 382, N-(4-(6-azaspiro[2.5]octan-6-yl)phenyl)-4-((8-methyl-2,3-dihydro-1H-pyrido[2,3-b][1,4]oxazin-7-yl)amino)-2-oxo-1,2-dihydropyridine-3-carboxamide] | 10 to 100 |
| Cc1c(Nc2cc[nH]c(=O)c2C(=O)Nc2ccc(C(N)=O)cc2)cnc2c1NCCO2 [Example 242, N-(4-carbamoylphenyl)-4-((8-methyl-2,3-dihydro-1H-pyrido[2,3-b][1,4]oxazin-7-yl)amino)-2-oxo-1,2-dihydropyridine-3-carboxamide] | 10 to 100 |
| Cc1c(Nc2cc[nH]c(=O)c2C(=O)Nc2ccc(-c3cc[nH]n3)cc2)cnc2c1NCCO2 [Example 145, N-(4-(1H-pyrazol-3-yl)phenyl)-4-((8-methyl-2,3-dihydro-1H-pyrido[2,3-b][1,4]oxazin-7-yl)amino)-2-oxo-1,2-dihydropyridine-3-carboxamide] | 10 to 100 |
| Cc1c(Nc2cc[nH]c(=O)c2C(=O)Nc2ccc(N3CCN(C)CC3)c(C#N)c2)cnc2c1NCC(C)O2 (stereo not drawn) [Example 191, N-(3-cyano-4-(4-methylpiperazin-1-yl)phenyl)-4-((3,8-dimethyl-2,3-dihydro-1H-pyrido[2,3-b][1,4]oxazin-7-yl)amino)-2-oxo-1,2-dihydropyridine-3-carboxamide] | 10 to 100 |
| COc1cc(NC(=O)c2c(Nc3cnc4c(c3C)NCC(C)O4)cc[nH]c2=O)ccc1N1CCN(C)CC1 (stereo not drawn) [Example 203, 4-((3,8-dimethyl-2,3-dihydro-1H-pyrido[2,3-b][1,4]oxazin-7-yl)amino)-N-(3-methoxy-4-(4-methylpiperazin-1-yl)phenyl)-2-oxo-1,2-dihydropyridine-3-carboxamide] | 10 to 100 |
| Cc1ncccc1N1CCN(c2ccc(NC(=O)c3c(Nc4cnc5c(c4C)NCCO5)cc[nH]c3=O)cc2)CC1 [Example 337, 4-((8-methyl-2,3-dihydro-1H-pyrido[2,3-b][1,4]oxazin-7-yl)amino)-N-(4-(4-(2-methylpyridin-3-yl)piperazin-1-yl)phenyl)-2-oxo-1,2-dihydropyridine-3-carboxamide] | ≤ 10 |

Next, values leading:

| IC50 [nM] | SMILES |
| --- | --- |
| ≤ 10 | Cc1c(Nc2cc[nH]c(=O)c2C(=O)Nc2ccc(N3CCN(C(=O)N4CC(F)(F)C4)CC3)cc2)cnc2c1NCCO2 [Example 319, N-(4-(4-(3,3-difluoroazetidine-1-carbonyl)piperazin-1-yl)phenyl)-4-((8-methyl-2,3-dihydro-1H-pyrido[2,3-b][1,4]oxazin-7-yl)amino)-2-oxo-1,2-dihydropyridine-3-carboxamide] |
| ≤ 10 | COCCN1CCN(c2ccc(NC(=O)c3c(Nc4cnc5c(c4C)NCCO5)cc[nH]c3=O)cc2)C[C@@H]1C [Example 346, (S)-N-(4-(4-(2-methoxyethyl)-3-methylpiperazin-1-yl)phenyl)-4-((8-methyl-2,3-dihydro-1H-pyrido[2,3-b][1,4]oxazin-7-yl)amino)-2-oxo-1,2-dihydropyridine-3-carboxamide] |
| ≤ 10 | Cc1c(Nc2cc[nH]c(=O)c2C(=O)Nc2ccc(N3CCN(CCN4CCOCC4)CC3)cc2)cnc2c1NCCO2 [Example 226, 4-((8-methyl-2,3-dihydro-1H-pyrido[2,3-b][1,4]oxazin-7-yl)amino)-N-(4-(4-(2-morpholinoethyl)piperazin-1-yl)phenyl)-2-oxo-1,2-dihydropyridine-3-carboxamide] |
| ≤ 10 | Cc1c(Nc2cc[nH]c(=O)c2C(=O)Nc2ccc(N3CCN(C4CCCC4)CC3)cc2)cnc2c1NCCO2 [Example 147, N-(4-(4-cyclopentylpiperazin-1-yl)phenyl)-4-((8-methyl-2,3-dihydro-1H-pyrido[2,3-b][1,4]oxazin-7-yl)amino)-2-oxo-1,2-dihydropyridine-3-carboxamide] |
| ≤ 10 | Cc1c(Nc2cc[nH]c(=O)c2C(=O)Nc2ccc(N3CCCC(N)C3)cc2)cnc2c1NCCO2 (stereo not drawn) [Example 153, N-(4-(3-aminopiperidin-1-yl)phenyl)-4-((8-methyl-2,3-dihydro-1H-pyrido[2,3-b][1,4]oxazin-7-yl)amino)-2-oxo-1,2-dihydropyridine-3-carboxamide] |
| ≤ 10 | Cc1c(Nc2cc[nH]c(=O)c2C(=O)Nc2ccc(N3CCN(Cc4ccn[nH]4)CC3)cc2)cnc2c1NCC(C)O2 (stereo not drawn) [Example 193, N-(4-(4-((1H-pyrazol-5-yl)methyl)piperazin-1-yl)phenyl)-4-((3,8-dimethyl-2,3-dihydro-1H-pyrido[2,3-b][1,4]oxazin-7-yl)amino)-2-oxo-1,2-dihydropyridine-3-carboxamide] |
| ≤ 10 | Cc1c(Nc2cc[nH]c(=O)c2C(=O)Nc2ccc(N3CCN(C(=O)N4CC5(CCC5)C4)CC3)cc2)cnc2c1NCCO2 [Example 320, N-(4-(4-(2-azaspiro[3.3]heptane-2-carbonyl)piperazin-1-yl)phenyl)-4-((8-methyl-2,3-dihydro-1H-pyrido[2,3-b][1,4]oxazin-7-yl)amino)-2-oxo-1,2-dihydropyridine-3-carboxamide] |
| ≤ 10 | COCCC(=O)N1CCN(c2ccc(NC(=O)c3c(Nc4cnc5c(c4C)NCCO5)cc[nH]c3=O)cc2)CC1 [Example 285, N-(4-(4-(3-methoxypropanoyl)piperazin-1-yl)phenyl)-4-((8-methyl-2,3-dihydro-1H-pyrido[2,3-b][1,4]oxazin-7-yl)amino)-2-oxo-1,2-dihydropyridine-3-carboxamide] |
